The values below come from patent US7097848B2, “Synergistic insecticidal mixtures” (Bayer Cropscience AG, priority 2002, dated 2006).

What all share (type): in vivo
Series [1] concerns cotton aphid (Aphis gossypii). Briefly: Aphis gossypii test (cotton leaf dip). The settings on record: Table O (Example O); activity found. The source says:
(§1) The expected activity for a given combination of two active compounds can be calculated as follows (cf. Carpenter, C. S., “Mammalian Toxicity of 1-naphthyl-N-methylcarbamate [Sevin Insecticide]”, Agricultural and Food Chemistry, Vol. 9, No. 1, pages 30–39, 1961):
(§2) If • Pa is the proportion of active compound A in the mixture, • Pb is the proportion of active compound B in the mixture, • LC50 (or 95)a is the concentration at which 50% (or 95%) of the animals treated with active compound A are killed and • LC50 (or 95)b is the concentration at which 50% (or 95%) of the animals treated with active compound B are killed,
(§3) If the calculated LC50 (or 95) exceeds the value actually obtained and is higher than the confidence interval, the activity of the combination is superadditive, i.e. a synergistic effect exists.
(§4) To produce a suitable preparation of active compound, 1 part by weight of active compound is mixed with the stated amounts of solvent and emulsifier, and the concentrate is diluted with emulsifier-containing water to the desired concentration.
Cotton leaves (Gossypium hirsutum), which are heavily infested by the cotton aphid (Aphis gossypii) are treated by being dipped into the preparation of active compound of the desired concentration.
After the desired period of time, the killed in % is determined. […] The determined kill rates are inserted into Carpenter's formula.

The subject of series [2] is larvae of the mustard beetle (Phaedon cochleariae). Briefly: Phaedon larvae test (cabbage leaf dip). The settings on record: activity found; for LC50 after 6 days: Table D (Example D).
Source text: as §1, §2, §3, §4
Cabbage leaves (Brassica oleracea) are treated by being dipped into the preparation of active compound of the desired concentration and are populated with larvae of the mustard beetle (Phaedon cochleariae) while the leaves are still moist.
After the desired period of time, the kill in % is determined. 100% means that all beetle larvae have been killed; 0% means that none of the beetle larvae have been killed. The determined kill rates are inserted in Carpenter's formula.
(§5) To produce a suitable preparation of active compound, 1 part by weight of active compound is mixed with the stated amounts of solvent emulsifier, and the concentrate is diluted with emulsifier-containing water to the desired concentration.

Series [3] relates to green peach aphid (Myzus persicae). In words: Myzus test (cabbage leaf dip). The note with it: activity found; for LC50 after 6 days: Table B (Example B).
Source text: as §1, §2, §3, §4
Cabbage leaves (Brassica oleracea), which are heavily infested by the green peach aphid (Myzus persicae) are treated by being dipped into the preparation of active compound of the desired concentration.
After the desired period of time, the killed in % is determined. 100% means that all aphids have been killed. The determined kill rates are inserted into Carpenter's formula.
After the desired period of time, the killed in % is determined. 100% means that all aphids have been killed; 0% means that none of the aphids have been killed. The determined kill rates are inserted into Carpenter's formula.

Series [4] has as its system caterpillars of the diamondback moths (Plutella xylostella, sensitive strain). In words: Plutella test, sensitive strain (cabbage leaf dip). The note with it: activity found.
Source text: as §1, §2, §3, §4
Cabbage leaves (Brassica oleracea) are treated by being dipped into the preparation of active compound of the desired concentration and are populated with caterpillars of the diamondback moths (Plutella xylostella, sensitive strain) while the leaves are still moist.
(§6) After the desired period of time, the kill in % is determined. 100% means that all caterpillars have been killed; 0% means that none of the caterpillars have been killed. The determined kill rates are inserted in Carpenter's formula.
as §5

In series [5] the test system is caterpillars of the armyworm (Spodoptera frugiperda). Briefly: Spodoptera frugiperda test (cabbage leaf dip). The settings on record: activity found; for LC95 after 3 days: Table E (Example E).
Source text: as §1, §2, §3, §4
Cabbage leaves (Brassica oleracea) are treated by being dipped into the preparation of active compound of the desired concentration and are populated with caterpillars of the armyworm (Spodoptera frugiperda) while the leaves are still moist.
as §6

Series [6] concerns Heliothis armigera caterpillars. In words: Heliothis armigera test (soya bean shoot dip). The settings on record: activity found.
Source text: as §1, §2, §3, §4
Soya bean shoots (glycine max) are treated by being dipped into the preparation of active compound of the desired concentration and are populated with Heliothis armigera caterpillars while the leaves are still moist.
After the desired period of time, the kill in % is determined. 100% means that all caterpillars have been killed; 0% means that none of the caterpillars have been killed. The determined kill rates are inserted into Carpenter's formula (see preceding page).
After the desired period of time, the kill in % is determined. 100% means that all caterpillars have been killed; 0% means that none of the caterpillars have been killed. The determined kill rates are inserted into Carpenter's formula.

In series [7] the test system is caterpillars of the diamondback moths (Plutella xylostella, resistant strain). Briefly: Plutella test, resistant strain (cabbage leaf dip). The settings on record: Table M (Example M); activity found.
Source text: as §1, §2, §3
To produce a suitable preparation of active compound, 1 part by weight of active compound is mixed with the stated amounts of solvent and emulsifier, and the concentrate is diluted with emulsifier-containing water to the desired concentration. […]
After the desired period of time, the kill in % is determined. […] The determined kill rates are inserted in Carpenter's formula.

As to `CC1(C)[C@H](C(=O)O[C@H](C#N)c2cccc(Oc3ccccc3)c2)[C@@H]1/C=C(\Cl)C(F)(F)F` (racemic) [lambda-cyhalothrin], the entries for the “LC95 after 6 days” value in series [1], in series [2] (Table Q (Example Q)) and in series [4] (Table R (Example R)) were 10.545 ppm, 11.234 ppm and 0.09 ppm, respectively. Moreover, the “LC95 after 1 day” value in series [3] (Table P (Example P)) came out at 11.234 ppm.
In the case of `CNC(=O)Oc1cc(C)c(SC)c(C)c1` [methiocarb], the “LC95 after 1 day” value in series [3] (Table H (Example H)) is 75.000 ppm. Besides, the “LC50 after 6 days” value in series [5] (Table I (Example I)) is listed as 51.649 ppm.
With `CN/C(=N\[N+](=O)[O-])NCc1cnc(Cl)s1` [clothianidin], the “LC95 after 6 days” value in series [1] was 4.954 ppm; in series [2] (Table G (Example G)), 11.234 ppm; in series [2] (Table K (Example K)) it was 17.504 ppm; in series [2] (Table Q (Example Q)), 7.690 ppm; in series [4] (Table C (Example C)), 42.493 ppm; in series [4] (Table L (Example L)), 9.045 ppm. Also, the “LC95 after 6 days” value in series [4] (Table R (Example R)) came out at 28.46 ppm. In addition, the “LC50 after 6 days” value was 0.997 ppm in series [6] (Table A (Example A)); 15.0 ppm in series [6] (Table F (Example F)); 3.527 ppm in series [6] (Table J (Example J)); 6.708 ppm in series [2]; 27.271 ppm in series [7]; 1.013 ppm in series [3]. The “LC50 after 6 days” value in series [5] (Table I (Example I)) came to 2.450 ppm; in series [5] (Table N (Example N)), 0.178 ppm. The results for the “LC95 after 1 day” value in series [3] (Table H (Example H)) and in series [3] (Table P (Example P)) were 5.988 ppm and 1.303 ppm, respectively. For the same molecule, in series [5], the “LC95 after 3 days” value came out at 6.099 ppm.
`CC[C@H](C)[C@H]1O[C@]2(C=C[C@@H]1C)C[C@@H]1C[C@@H](C/C=C(\C)[C@@H](O[C@H]3C[C@H](OC)[C@@H](O[C@H]4C[C@H](OC)[C@@H](O)[C@H](C)O4)[C@H](C)O3)[C@@H](C)/C=C/C=C3\CO[C@@H]4[C@H](O)C(C)=C[C@@H](C(=O)O1)[C@]34O)O2` [avermectin]: the “LC50 after 6 days” value in series [6] (Table F (Example F)) is given as 0.094 ppm. Further, in series [2] (Table G (Example G)), the “LC95 after 6 days” value amounted to 1.431 ppm.
With `CC1(C)C(C=C(Cl)Cl)C1C(=O)OC(C#N)c1ccc(F)c(Oc2ccccc2)c1` (stereo not drawn) [β-cyfluthrin], the “LC50 after 6 days” value in series [6] (Table A (Example A)) is 0.159 ppm; in series [2], 0.646 ppm; in series [3], 2.583 ppm. Besides, in series [4] (Table C (Example C)), the “LC95 after 6 days” value is 0.699 ppm. In addition, the “LC95 after 3 days” value in series [5] is reported as 1.113 ppm.
Regarding emamectin benzoate, the “LC50 after 6 days” value in series [6] (Table J (Example J)) was 0.007 ppm; in series [7] it was 0.0012 ppm; in series [5] (Table N (Example N)), 0.003 ppm. The “LC95 after 6 days” value in series [2] (Table K (Example K)) was 0.072 ppm; in series [4] (Table L (Example L)) it was 0.0009 ppm.
